# Data: ChEMBL document CHEMBL5365467 (J Med Chem, 2023)
# Legend:
# VCaP [1] = experiment: Antitumor activity against human VCaP cells xenografted in CB17-SCID mouse assessed as tumor growth inhibition at 40 mg/kg, po administered for 21 days; conditions: 504 h, read-out: TGI
# VCaP [2] = experiment: Antitumor activity against human VCaP cells xenografted in CB17-SCID mouse assessed as tumor growth inhibition at 10 mg/kg, po administered for 21 days; format: functional; conditions: 504 h, time 21 day, read-out: TGI
# [3] = Tmax in Sprague-Dawley rat at 5 mg/kg, po measured upto 24 hrs by LC-MS/MS analysis; format: ADME, organism-based; conditions: in vivo
# [4] = Oral bioavailability in ICR mouse at 5 mg/kg measured upto 24 hrs by LC-MS/MS analysis; format: ADME, organism-based; conditions: in vivo
# [5] = biological target: Protein cereblon/Androgen receptor (Homo sapiens, UniProt P10275+Q96SW2); experiment: PROTAC activity at AR/CRBN in AR-positive human VCaP cells assessed as induction of androgen receptor degradation measured at 24 hrs; format: cell-based; conditions: read-out: DC50
# Chain of Protein cereblon/Androgen receptor (Homo sapiens, UniProt P10275+Q96SW2) (P10275 whole entry): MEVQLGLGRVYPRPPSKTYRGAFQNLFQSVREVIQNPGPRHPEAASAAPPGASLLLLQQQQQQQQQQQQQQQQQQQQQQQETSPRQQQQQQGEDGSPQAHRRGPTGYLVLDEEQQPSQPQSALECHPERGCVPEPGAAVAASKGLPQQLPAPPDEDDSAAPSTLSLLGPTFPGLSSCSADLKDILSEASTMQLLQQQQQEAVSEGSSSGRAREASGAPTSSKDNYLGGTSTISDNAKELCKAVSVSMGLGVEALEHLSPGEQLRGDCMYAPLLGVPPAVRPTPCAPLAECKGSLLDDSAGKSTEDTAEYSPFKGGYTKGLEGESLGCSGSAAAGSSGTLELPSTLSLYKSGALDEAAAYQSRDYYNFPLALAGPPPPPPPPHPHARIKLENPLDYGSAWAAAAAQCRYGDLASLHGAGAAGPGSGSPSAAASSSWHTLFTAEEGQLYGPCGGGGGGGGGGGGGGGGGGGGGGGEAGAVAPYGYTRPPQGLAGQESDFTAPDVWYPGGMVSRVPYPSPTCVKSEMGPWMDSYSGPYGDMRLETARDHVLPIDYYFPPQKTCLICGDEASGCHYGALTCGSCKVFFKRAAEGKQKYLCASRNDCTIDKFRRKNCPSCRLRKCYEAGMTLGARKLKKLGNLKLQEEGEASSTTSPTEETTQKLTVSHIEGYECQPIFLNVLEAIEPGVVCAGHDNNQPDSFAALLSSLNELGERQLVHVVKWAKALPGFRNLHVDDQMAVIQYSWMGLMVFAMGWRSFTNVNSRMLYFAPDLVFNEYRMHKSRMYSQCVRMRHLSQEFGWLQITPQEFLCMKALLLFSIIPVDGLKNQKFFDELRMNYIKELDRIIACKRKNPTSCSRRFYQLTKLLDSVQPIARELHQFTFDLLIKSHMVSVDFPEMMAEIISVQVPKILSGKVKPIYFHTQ
# Chain of Protein cereblon/Androgen receptor (Homo sapiens, UniProt P10275+Q96SW2) (Q96SW2 whole entry): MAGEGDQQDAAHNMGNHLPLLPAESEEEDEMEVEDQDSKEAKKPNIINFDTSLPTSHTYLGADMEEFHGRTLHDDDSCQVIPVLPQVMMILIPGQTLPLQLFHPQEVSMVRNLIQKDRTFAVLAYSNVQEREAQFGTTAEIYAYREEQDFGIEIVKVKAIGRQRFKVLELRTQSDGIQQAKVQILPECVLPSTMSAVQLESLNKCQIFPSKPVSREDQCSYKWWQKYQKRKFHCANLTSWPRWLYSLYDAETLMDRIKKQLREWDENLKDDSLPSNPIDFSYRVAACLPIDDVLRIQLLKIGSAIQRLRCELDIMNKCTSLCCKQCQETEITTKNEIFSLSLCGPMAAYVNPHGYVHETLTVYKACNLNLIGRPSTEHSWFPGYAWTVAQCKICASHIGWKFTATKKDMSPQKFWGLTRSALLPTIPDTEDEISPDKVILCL
# [6] = biological target: Protein cereblon/Androgen receptor (Homo sapiens, UniProt P10275+Q96SW2, T878A); experiment: PROTAC activity at AR T878A mutant/CRBN in human LNCaP cells assessed as induction of androgen receptor degradation measured at 24 hrs by Western blot analysis; format: cell-based
# Chain of Protein cereblon/Androgen receptor (Homo sapiens, UniProt P10275+Q96SW2, T878A) (P10275 whole entry T878A, stated change not applied): as the sequence (P10275 whole entry) above, with T878A counted along it
# Chain of Protein cereblon/Androgen receptor (Homo sapiens, UniProt P10275+Q96SW2, T878A) (Q96SW2 whole entry, stated change not applied): as the sequence (Q96SW2 whole entry) above
# VCaP [7] = experiment: Growth inhibition in human VCaP cells
# [8] = Half life in Sprague-Dawley rat at 2 mg/kg, iv measured upto 24 hrs by LC-MS/MS analysis; conditions: in vivo
# [9] = Clearance in Sprague-Dawley rat at 2 mg/kg, iv measured upto 24 hrs by LC-MS/MS analysis; conditions: in vivo
# [10] = Half life in Sprague-Dawley rat at 5 mg/kg, po measured upto 24 hrs by LC-MS/MS analysis; conditions: in vivo
# LNCaP = experiment: Growth inhibition in human LNCaP cells assessed as reduction in cell viability
# [11] = Metabolic stability in mouse liver microsome assessed as half life measured upto 45 mins in presence of NADPH by LC-MS/MS analysis; format: ADME; conditions: liver microsomes
# [12] = Metabolic stability in rat liver microsome assessed as half life measured upto 45 mins in presence of NADPH by LC-MS/MS analysis; format: ADME; conditions: liver microsomes
# [13] = Metabolic stability in dog liver microsome assessed as half life measured upto 45 mins in presence of NADPH by LC-MS/MS analysis; format: ADME, Canis lupus familiaris; conditions: liver microsomes
# [14] = Metabolic stability in non human primate liver microsome assessed as half life measured upto 45 mins in presence of NADPH by LC-MS/MS analysis; format: ADME; conditions: primates, liver microsomes
# [15] = Metabolic stability in human liver microsome assessed as half life measured upto 45 mins in presence of NADPH by LC-MS/MS analysis; format: ADME; conditions: liver microsomes
# [16] = Metabolic stability in rat liver microsome assessed as parent compound remaining measured at 120 mins in presence of NADPH by LC-MS/MS analysis; format: ADME; conditions: liver microsomes, read-out: Stability
# [17] = Metabolic stability in non human primate liver microsome assessed as parent compound remaining measured at 120 mins in presence of NADPH by LC-MS/MS analysis; format: ADME; conditions: primates, liver microsomes, read-out: Stability
# [18] = Metabolic stability in human liver microsome assessed as parent compound remaining measured at 120 mins in presence of NADPH by LC-MS/MS analysis; format: ADME; conditions: liver microsomes, read-out: Stability
# [19] = Metabolic stability in mouse hepatocyte assessed as half life measured upto 120 mins by LC-MS/MS analysis; format: ADME, cell-based; conditions: hepatocytes
# [20] = Metabolic stability in dog hepatocyte assessed as half life measured upto 120 mins by LC-MS/MS analysis; format: ADME, cell-based, Canis lupus familiaris; conditions: hepatocytes
# [21] = Metabolic stability in mouse plasma assessed as half life measured after 2 hrs by LC-MS/MS analysis; format: ADME, cell-free
# [22] = Metabolic stability in rat plasma assessed as half life measured after 2 hrs by LC-MS/MS analysis; format: ADME, cell-free
# [23] = Metabolic stability in human plasma assessed as half life measured after 2 hrs by LC-MS/MS analysis; format: ADME, cell-free
# [24] = Metabolic stability in mouse plasma assessed as parent compound remaining measured after 120 mins by LC-MS/MS analysis; format: ADME, cell-free; conditions: read-out: Stability
# [25] = Metabolic stability in non human primate plasma assessed as parent compound remaining measured after 120 mins by LC-MS/MS analysis; format: ADME, cell-free; conditions: primates, read-out: Stability
# [26] = Half life in ICR mouse at 2 mg/kg, iv measured upto 24 hrs by LC-MS/MS analysis; format: ADME, organism-based; conditions: in vivo
# [27] = AUC (0 to t) in ICR mouse at 2 mg/kg, iv measured upto 24 hrs by LC-MS/MS analysis; format: ADME, organism-based; design: dose 2 mg/kg, time < 24 hrs, route iv; conditions: in vivo
# [28] = Volume of distribution at steady state in ICR mouse at 2 mg/kg, iv measured upto 24 hrs by LC-MS/MS analysis; format: ADME, organism-based; conditions: in vivo, read-out: Vdss
# [29] = Clearance in ICR mouse at 2 mg/kg, iv measured upto 24 hrs by LC-MS/MS analysis; format: ADME, organism-based; conditions: in vivo
# [30] = Tmax in ICR mouse at 5 mg/kg, po measured upto 24 hrs by LC-MS/MS analysis; format: ADME, organism-based; conditions: in vivo
# [31] = Half life in ICR mouse at 5 mg/kg, po measured upto 24 hrs by LC-MS/MS analysis; format: ADME, organism-based; conditions: in vivo
# [32] = Cmax in ICR mouse at 5 mg/kg, po measured upto 24 hrs by LC-MS/MS analysis; format: ADME, organism-based; design: time < 24 hrs, dose 5 mg/kg, route po; conditions: in vivo
# [33] = AUC (0 to t) in ICR mouse at 5 mg/kg, po measured upto 24 hrs by LC-MS/MS analysis; format: ADME, organism-based; design: dose 5 mg/kg, time < 24 hrs, route po; conditions: in vivo
# [34] = Half life in Beagle dog at 10 mg/kg, po measured upto 24 hrs by LC-MS/MS analysis; format: ADME, organism-based, Canis lupus familiaris; conditions: in vivo
# [35] = Cmax in Beagle dog at 10 mg/kg, po measured upto 24 hrs by LC-MS/MS analysis; format: ADME, organism-based, Canis lupus familiaris; design: time < 24 hrs, dose 10 mg/kg, route po; conditions: in vivo
# [36] = AUC (0 to t) in Beagle dog at 10 mg/kg, po measured upto 24 hrs by LC-MS/MS analysis; format: ADME, organism-based, Canis lupus familiaris; design: time < 24 hrs, dose 10 mg/kg, route po; conditions: in vivo
# [37] = Oral bioavailability in Beagle dog at 10 mg/kg measured upto 24 hrs by LC-MS/MS analysis; format: ADME, organism-based, Canis lupus familiaris; conditions: in vivo
# [38] = Half life in non human primate assessed as half life at 1 mg/kg, iv measured upto 24 hrs by LC-MS/MS analysis; format: ADME, organism-based; conditions: primates, in vivo
# [39] = AUC (0 to t) in non human primate at 1 mg/kg, iv measured upto 24 hrs by LC-MS/MS analysis; format: ADME, organism-based; design: dose 1 mg/kg, time < 24 hrs, route iv; conditions: primates, in vivo
# [40] = Volume of distribution at steady state in non human primate at 1 mg/kg, iv measured upto 24 hrs by LC-MS/MS analysis; format: ADME, organism-based; conditions: primates, in vivo, read-out: Vdss
# [41] = Clearance in non human primate at 1 mg/kg, iv measured upto 24 hrs by LC-MS/MS analysis; format: ADME, organism-based; conditions: primates, in vivo
# [42] = Tmax in non human primate at 2 mg/kg, po measured upto 24 hrs by LC-MS/MS analysis; format: ADME, organism-based; conditions: primates, in vivo
# [43] = biological target: Protein cereblon/Androgen receptor (Homo sapiens, UniProt P10275+Q96SW2, L702H/T878A); conditions: mda-pca-2b
# Chain of Protein cereblon/Androgen receptor (Homo sapiens, UniProt P10275+Q96SW2, L702H/T878A) (P10275 whole entry L702H/T878A, stated change not applied): as the sequence (P10275 whole entry) above, with L702H, T878A counted along it
# Chain of Protein cereblon/Androgen receptor (Homo sapiens, UniProt P10275+Q96SW2, L702H/T878A) (Q96SW2 whole entry, stated change not applied): as the sequence (Q96SW2 whole entry) above
# in vivo = conditions: Sprague-Dawley, rat, iv, 2 mg/kg
structure (smiles),measurement,setting,value
C[C@H]1CC2(CCN(c3ccc(C(=O)N4CCC(CN5Cc6cc7c(cc6C5)C(=O)N(C5CCC(=O)NC5=O)C7=O)CC4)cc3)CC2)CN1c1ccc(C#N)c(Cl)c1 (stereo not given in full),inhibition in vivo at 40 mg/kg,VCaP [1],85%
same,inhibition in vivo at 10 mg/kg,VCaP [2],50%
same,Tmax,[3],4 h
same,bioavailability,[4],67%
same,DC50,[5],0.1 nM
same,DC50,[6],1.1 nM
same,IC50,VCaP [7],11.5 nM
same,half-life at 24 h,[8],4.5 h
same,clearance at 24 h,[9],6 mL/min/kg
same,half-life at 24 h,[10],5.6 h
same,IC50,LNCaP,2.8 nM
same,half-life at […],[11],> 1 h
same,half-life at […],[12],> 1 h
same,half-life at […],[13],> 1 h
same,half-life at […],[14],> 1 h
same,half-life at […],[15],> 1 h
same,remaining at 2 h,[16],87%
same,remaining at 2 h,[17],82%
same,remaining at 2 h,[18],84%
same,half-life,[19],> 2 h
same,half-life,[20],> 2 h
same,half-life,[21],> 2 h
same,half-life,[22],> 2 h
same,half-life,[23],> 2 h
same,remaining at 2 h,[24],62%
same,remaining at 2 h,[25],92%
same,half-life,[26],4.3 h
same,AUC(0-t) at 24 h,[27],50500 ng·h/mL
same,Vd,[28],0.23 L/kg
same,clearance,[29],0.667 mL/min/kg
same,Tmax,[30],2 h
same,half-life,[31],4.4 h
same,Cmax,[32],9120 ng/mL
same,AUC(0-t) at 24 h,[33],85200 ng·h/mL
same,half-life,[34],27.4 h
same,Cmax,[35],1030 ng/mL
same,AUC(0-t) at 24 h,[36],15200 ng·h/mL
same,bioavailability,[37],31%
same,half-life,[38],10 h
same,AUC(0-t) at 24 h,[39],5170 ng·h/mL
same,Vd,[40],2.07 L/kg
same,clearance,[41],3.33 mL/min/kg
same,Tmax,[42],3.33 h
same,DC50,[43],8 nM
same,AUC(0-t) at 24 h,in vivo,5490 ng·h/mL
